Laboratory results published in patent US20040186117A1, “Marker” (priority 2001, published 2004).
Where “and” joins values, the source holds several entries; their conditions need not be identical. Identical values can stand only once. Entries after “also recorded” stand apart in the source; their conditions may differ.

How the values were obtained:
cyclin D1 in HT29 cells = experiment: Western blotting for cyclin D1 expression in HT29 cells; conditions: HT29, 50 μM
[1] = tested on: c-FOS protein in HT29 cells; conditions: for effect on c-FOS protein level: HT29, 50 μM
[2] = tested on: RB phosphorylation (Ser780, Ser608) in HT29 cells; experiment: Western blotting for RB phosphorylation in HT29 cells; type: cell-based, human; conditions: for time of loss of RB phosphorylation after exposure: HT29, 50 μM; for effect on RB phosphorylation: HT29, equitoxic (3×96 h IC50) concentration, 24 h
Source text: (§1) This antibody was selected as a representative marker for all tested phosphorylation sites of RB (see Section 2). […] A general loss of RB phosphorylation is indicated by a switch from a broad band to a thin, more rapidly migrating band for total RB (see Section 2, FIG. 9).
(§2) Samples were harvested for western blotting or for cell cycle analysis by FACS. […] Since validating the original phospho-specific antibodies, a Ser608 antibody became available from Dr Sibylle Mittnacht. This site is potentially phosphorylated by CDK4/cyclin D1 and CDK2/cyclin A (Zarkowska and Mittnacht, J. Biol Chem (1997) 9:272 12738-46).

[3] = tested on: ERK1/2 phosphorylation in HT29 cells; experiment: Western blotting for phospho-ERK1/2 in HT29 cells; type: cell-based, human; conditions: for effect on ERK phosphorylation: HT29, equitoxic (3×96 h IC50) concentration, 24 h
[4] = tested on: ELK-1 phosphorylation (Ser383) in HT29 cells
[5] = tested on: ERK1/2 phosphorylation in KM12 cells; experiment: Western blotting for phospho-ERK1/2 in KM12 cells; type: cell-based, human
[6] = tested on: RB phosphorylation (Ser780) in KM12 cells; conditions: KM12, 50 μM
Source text: as §1, §2

[7] = HT29, 10 μM with 50 μM R-roscovitine

| Compound | effect on cyclin D1 expression (cyclin D1 in HT29 cells) | effect on c-FOS protein level [1] | time of loss of RB phosphorylation after exposure [2] | effect on ERK phosphorylation [3] | effect on RB phosphorylation [2] | other results |
| --- | --- | --- | --- | --- | --- | --- |
| CC[C@H](CO)Nc1nc(NCc2ccccc2)c2ncn(C(C)C)c2n1 (racemic) [roscovitine] | decreased levels | increased levels | 24 h | – | – | – |
| N#CC(=C(/N)Sc1ccccc1N)/C(C#N)=C(\N)Sc1ccccc1N [U0126, reference compound] | – | – | – | – | – | effect on R-roscovitine-induced ERK phosphorylation [3, 7]: prevented the induction; effect on R-roscovitine-induced increase in c-FOS [1, 7]: blocked; effect on R-roscovitine-induced ELK-1 phosphorylation [4, 7]: blocked the phosphorylation |
| CC[C@H](CO)Nc1nc(NCc2ccccc2)c2ncn(C(C)C)c2n1 [R-roscovitine, 2-(R)-(1-ethyl-2-hydroxyethylamino)-6-benzylamino-9-isopropylpurine] | inhibited the expression | induction of c-FOS protein | 12 to 24 h and 24 h | induced ERK phosphorylation | inhibited RB phosphorylation | kinetics of induction of ERK phosphorylation compared with HT29 ([5]; KM12, 50 μM time course): slower kinetics; effect on phosphorylated ERK1/2 ([5]; KM12, increasing concentrations, 24 h exposure): increase of phosphorylated ERK1/2; phospho-ERK1/2 level at 24 h ([3]; HT29, 50 μM time course): remaining above basal levels; time of onset of induction of ERK phosphorylation ([3]; HT29, 50 μM time course): 1 h; time at which induction of ERK phosphorylation was observed ([3]; HT29, 50 μM, experiment with U0126 (FIG. 5B)): 4 to 24 h; effect on phosphorylated ERK1/2 ([3]; HT29, increasing concentrations, 24 h exposure): increase of phosphorylated ERK1/2; time of loss of RB phosphorylation after exposure [6]: 12 to 24 h; time at which an increase of c-FOS protein was detected ([1]; HT29, 50 μM time course): 12 to 24 h; effect on ELK-1 phosphorylation ([4]; HT29, 50 μM, after 4 h): strong induction |
| CN1CC[C@H](c2c(O)cc(O)c3c(=O)cc(-c4ccccc4Cl)oc23)[C@H](O)C1 [flavopiridol] | – | – | – | fails to induce; also recorded: no effect upon ERK | failed to inhibit RB phosphorylation | – |
| CC(C)[C@H](CO)Nc1nc(Nc2cccc(Cl)c2)c2ncn(C(C)C)c2n1 [purvalanol A] | – | – | – | fails to induce; also recorded: failed to induce ERK phosphorylation | inhibited RB phosphorylation | – |
| O=C1Cc2c([nH]c3ccc([N+](=O)[O-])cc23)-c2ccccc2N1 [alsterpaullone] | – | – | – | fails to induce; also recorded: no effect upon ERK | failed to inhibit RB phosphorylation | – |
